Measured values taken from paper PMC7324608 (Scientific Reports, 2020).
Numbering of substitutions follows the chain as printed.

Assays:
Experiment in all cases: thermal shift assay
Type in all cases: binding
Parameters in all cases: (HpHtrA, G18-K475, UniProt G2J5T2); GST (N, cleaved yes); made in house; host or cells: E. coli BL21
[1] = target: T1, HpHtrA wt (Helicobacter pylori, UniProt G2J5T2)
T1 sequence (G2J5T2 18-475): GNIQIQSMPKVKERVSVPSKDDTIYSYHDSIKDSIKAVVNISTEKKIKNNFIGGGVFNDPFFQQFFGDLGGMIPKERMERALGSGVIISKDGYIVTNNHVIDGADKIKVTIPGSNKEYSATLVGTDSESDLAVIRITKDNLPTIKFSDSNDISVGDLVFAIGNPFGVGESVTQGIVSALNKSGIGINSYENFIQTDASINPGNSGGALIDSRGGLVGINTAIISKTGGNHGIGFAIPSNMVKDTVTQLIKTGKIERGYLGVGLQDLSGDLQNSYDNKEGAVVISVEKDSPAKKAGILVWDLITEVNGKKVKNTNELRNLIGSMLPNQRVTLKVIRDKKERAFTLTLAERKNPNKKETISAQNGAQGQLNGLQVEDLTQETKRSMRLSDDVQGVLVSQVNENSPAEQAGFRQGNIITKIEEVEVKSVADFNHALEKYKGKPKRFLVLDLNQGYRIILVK
Description: (§1) Recombinant HpHtrA proteins (wt, S164A, D165A, S166A, D168A) in 50 mM HEPES buffer (pH 7.4) were mixed with SYPRO Orange (Sigma-Aldrich, Vienna, Austria) to final concentrations of 4 µM HpHtrA and 7 × SYPRO Orange in a 96-well PCR plate. […] Fluorescence data was collected using an Applied Bioscience StepOne Plus PCR cycler (Thermo Fisher Scientific, Schwerte, Germany) during a temperature ramp from 25–95 °C (0.5 °C per min) with a 4 min hold at 25 °C and 95 °C. SYPRO Orange binds to exposed hydrophobic regions within the denatured HpHtrA proteins, which increases the fluorescence of the dye[57],[58]. The fluorescence emission signal can then be used to determine the melting temperature of the protein, which is located at the infliction point of the fluorescence signal curve. The experiment was performed in triplicates.

[2] = target: T2, HpHtrA S166A (Helicobacter pylori, UniProt G2J5T2, S166A)
T2 sequence (G2J5T2 18-475 S166A): T1 sequence (G2J5T2 18-475) with S149A
Description: as §1

[3] = target: T3, HpHtrA D165A (Helicobacter pylori, UniProt G2J5T2, D165A)
T3 sequence (G2J5T2 18-475 D165A): T1 sequence (G2J5T2 18-475) with D148A
Description: as §1

[4] = target: T4, HpHtrA D168A (Helicobacter pylori, UniProt G2J5T2, D168A)
T4 sequence (G2J5T2 18-475 D168A): T1 sequence (G2J5T2 18-475) with D151A
Description: as §1

[5] = low/increasing concentrations of ion

| SMILES | thermal destabilization (ΔTm) ([1]; HpHtrA wt, higher concentrations of ion) | thermal stabilization (ΔTm) ([1]; HpHtrA wt, low concentrations of ion) | thermal destabilization (ΔTm) ([2]; compared with wt and S164A) | thermal destabilization (ΔTm) ([3]; compared with wt and S164A) | thermal destabilization (ΔTm) ([4]; compared with wt and S164A) | concentration at which HpHtrA wt was stabilized ([1]; 4 µM HpHtrA wt, SYPRO Orange, 25–95 °C) | thermal stabilization (ΔTm) [2, 5] | thermal stabilization (ΔTm) [3, 5] | thermal stabilization (ΔTm) [4, 5] |
| --- | --- | --- | --- | --- | --- | --- | --- | --- | --- |
| [Cu+2] [Cu^++, CuCl2] | destabilized | stabilized | more strongly destabilized | more strongly destabilized | more strongly destabilized |  |  |  |  |
| [Zn+2] [Zn^++, ZnCl2] |  |  |  |  |  | approximately 10 µM | did not stabilize | did not stabilize | did not stabilize |
